A short description of data set [1]: in vitro. The following applies: human, plasma.
A short description of data set [2]: in vitro. The following applies: dog, plasma.
Data set [3] can be described thus: in vitro. The following applies: dog, liver microsomes.
A short description of data set [4]: in vitro. The following applies: rat, plasma.
The nature of data set [5]: in vitro. The following applies: mouse, plasma.

Consider one compound from ChEMBL document CHEMBL5375946, “Discovery of KB-0742, a Potent, Selective, Orally Bioavailable Small Molecule Inhibitor of CDK9 for MYC-Dependent Cancers” (J Med Chem, 2023).

As to `CCC(CC)c1cc(N[C@H]2CC[C@H](N)C2)n2nccc2n1` [ISTISOCICLIB], the fraction unbound at 10 µM in the data set “in vitro [1]” is 0.62; in “in vitro [2]” it was 0.28; in the data set “in vitro [4]” it was 0.59; in the data set “in vitro [5]”, 0.52. The compound also had a fraction remaining at 3 h in the data set “in vitro [3]” of 68.8%.
